Test results as given in patent US20010008892A1 (priority 1998, published 2001).

Tests used:
HIV = experiment: Antiviral activity: inhibition of the cytopathic effect of HIV in MT4 cells; type: cell-based; conditions: MT4 cells; 50% inhibition of the cytopathic effect of HIV; read-out: EC50
From the text: (§1) The IC50 is the concentration of compound that gives 50% inhibition of the cytopathic effect of HIV. The LC50 is the concentration of compound at which 50% of the cells remain viable.

MT4 cells = experiment: Cytotoxicity in MT4 cells (LC50, 50% of the cells remain viable); type: cell-based; conditions: MT4 cells; concentration at which 50% of the cells remain viable
From the text: as §1

HIV-1 protease = HIV-1 protease (Human immunodeficiency virus type 1 group M subtype B, UniProt P04585); experiment: Fluorogenic assay for screening inhibitors of HIV protease; conditions: compound concentration 0.5 nM; fluorogenic substrate 1.3 μM, pH 4.5, 30° C.
Method: A compound of the invention is dissolved in DMSO. A small aliquot is diluted with DMSO to 100 times the final concentration desired for testing. The test is carried out in a 6×50 mm tube in a total volume of 300 microliters. The final concentrations of the components in the reaction buffer are: 125 mM sodium acetate, 1 M sodium chloride, 5 mM dithiothreitol, 0.5 mg/ml bovine serum albumin, 1.3 μM fluorogenic substrate, 2% (v/v) dimethylsulfoxide, pH 4.5. After addition of inhibitor, the reaction mixture is placed in the fluorometer cell holder and incubated at 30° C. for several minutes. The reaction is initiated by the addition of a small aliquot of cold HIV protease. The fluorescence intensity (excitation 340 nm, emmision 490 nM) is recorded as a function of time. The reaction rate is determined for the first six to eight minutes. The observed rate is directly proportional to the moles of substrate cleaved per unit time. The percent inhibition is 100×(1- (rate in presence of inhibitor)/(rate in absence of inhibitor)).
The test compounds were then tested at a concentration of 0.5 nM.

Molecule | EC50 (HIV) | CC50 (MT4 cells) | % Inhib. (0.5 nM) (HIV-1 protease)
CC(C)c1nc(COC(=O)N[C@H](C(=O)N[C@@H](Cc2ccccc2)[C@H](O)CN2CCN(Cc3ccccc3)C[C@H]2C(=O)NC(C)(C)C)C(C)C)cs1 [Example 2, 2-(1-Methylethyl)-4-thiazolylmethyl-[(1S)-1-[[[(1S,2R)-3-[(2S)-2-[[(1,1-dimethylethyl)amino]carbonyl]-4-(phenylmethyl)-1-piperazinyl]-2-hydroxy-1-(phenylmethyl)propyl]amino]carbonyl]-2-methylpropyl]carbamate] | 0.022 µM | 47.1 µM | 66%
2-(1-Methylethyl)-4-thiazolylmethyl-(1S)-1-[[[(1S,2R)-3-[[(4-aminophenyl)sulfonyl](1-methylethyl)amino]-2-hydroxy-1-(phenylmethyl)propyl]amino]carbonyl]-2-methylpropyl]carbamate [Example 28] | 0.011 µM | 49.5 µM | 77%
COc1ccc(CN2CCN(C[C@@H](O)[C@H](Cc3ccccc3)NC(=O)[C@@H](NC(=O)OCc3cnc(C)s3)C(C)C)[C@H](C(=O)NC(C)(C)C)C2)cc1OC [Example 21, 2-Methyl-5-thiazolylmethyl-[(1S)-1-[[[(1S,2R)-3-[(2S)-4-[(3,4-dimethoxylphenyl)methyl]-2-[[(1,1-dimethylethyl)amino]carbonyl]-1-piperazinyl]-2-hydroxy-1-(phenylmethyl)propyl]amino]carbonyl]-2-methylpropyl]carbamate] | 0.011 µM | 53.1 µM | 44%
COc1ccc(CN2CCN(C[C@@H](O)[C@H](Cc3ccccc3)NC(=O)[C@@H](NC(=O)OCc3csc(C(C)C)n3)C(C)C)[C@H](C(=O)NC(C)(C)C)C2)cc1OC [Example 11, 2-(1-Methylethyl)-4-thiazolylmethyl[(1S)-1-[[[(1S,2R)-3-[(2S)-4-[(3,4-dimethoxylphenyl)methyl]-2-[[(1,1-dimethylethyl)amino]carbonyl]-1-piperazinyl]-2-hydroxy-1-(phenylmethyl)propyl]amino]carbonyl]-2-methylpropyl]carbamate] | 0.017 µM | 18.3 µM | 62%
CC(C)c1nc(COC(=O)N[C@H](C(=O)N[C@@H](Cc2ccccc2)[C@H](O)CN2CCN(Cc3cccnc3)C[C@H]2C(=O)NC(C)(C)C)C(C)C)cs1 [Example 6, 2-(1-Methylethyl)-4-thiazolylmethyl-[(1S)-1-[[[(1S,2R)-3-[(2S)-2-[[(1,1-dimethylethyl)amino]carbonyl]-4-(3-pyridinylmethyl)-1-piperazinyl]-2-hydroxy-1-(phenylmethyl)propyl]amino]carbonyl]-2-methylpropyl]carbamate] | 0.012 µM | 58.6 µM | 60%
2-(1-Methylethyl)-4-thiazolylmethyl-[(1S)-1-[[[(1S,2R)-3-[[[(1,1-dimethylethyl)amino]carbonyl](2-methylethyl)propylamino]-2-hydroxy-1-(phenylmethyl)propyl]amino]carbonyl]-2-methylpropyl]carbamate [Example 27] | 0.374 µM | 20.6 µM | 50%
CCc1ncc(COC(=O)N[C@H](C(=O)N[C@@H](Cc2ccccc2)[C@H](O)CN2CCN(Cc3ccc(OC)c(OC)c3)C[C@H]2C(=O)NC(C)(C)C)C(C)C)s1 [Example 20] | 0.016 µM | 49.7 µM | 37%
COc1ccc(CN2CCN(C[C@@H](O)[C@H](Cc3ccccc3)NC(=O)[C@@H](NC(=O)OCc3cnc(C(C)C)s3)C(C)C)[C@H](C(=O)NC(C)(C)C)C2)cc1OC [Example 19, 2-(1-Methylethyl)-5-thiazolylmethyl-[(1S)-1-[[[(1S,2R)-3-[(2S)-4-[(3,4-dimethoxylphenyl)methyl]-2-[[(1,1-dimethylethyl)amino]carbonyl]-1-piperazinyl]-2-hydroxy-1-(phenylmethyl)propyl]amino]carbonyl]-2-methylpropyl]carbamate] | 0.017 µM | 20.7 µM | 51%
Cc1nc(COC(=O)N[C@H](C(=O)N[C@@H](Cc2ccccc2)[C@H](O)CN2CCN(Cc3ccc4c(c3)OCO4)C[C@H]2C(=O)NC(C)(C)C)C(C)C)cs1 [Example 15, 2-Methyl-4-thiazolylmethyl-[(1S)-1-[[[(1S,2R)-3-[(2S)-4-(1,3-benzodioxol-5-ylmethyl)-2-[[(1,1-dimethylethyl)amino]carbonyl]-1-piperazinyl]-2-hydroxy-1-(phenylmethyl)propyl]amino]carbonyl]-2-methylpropyl]carbamate] | 0.011 µM | 53.1 µM | 45%
Cc1nc(COC(=O)N[C@H](C(=O)N[C@@H](Cc2ccccc2)[C@H](O)CN2CCN(Cc3ccc(F)cc3)C[C@H]2C(=O)NC(C)(C)C)C(C)C)cs1 [Example 17, 2-Methyl-4-thiazolylmethyl-[(1S)-1-[[[(1S,2R)-3-[(2S)-2-[[(1,1-dimethylethyl)amino]carbonyl]-4-[(4-fluorophenyl)methyl]-1-piperazinyl]-2-hydroxy-1-(phenylmethyl)propyl]amino]carbonyl]-2-methylpropyl]carbamate] | 0.011 µM | 39.2 µM | 50%
CC(C)c1ncc(CN(C)C(=O)N[C@H](C(=O)N[C@@H](Cc2ccccc2)[C@H](O)CN2C[C@H]3CCCC[C@H]3C[C@H]2C(=O)NC(C)(C)C)C(C)C)s1 [Example 31, N′-[(1S)-1-[[[(1S,2 R)-3-[(3S)-3-[[(1,1-Dimethylethyl)amino]carbonyl](4aα,8aα)-octahydro-2-isoquinolinyl]-2-hydroxy-1-(phenylmethyl)propyl]amino]carbonyl]-2-methylpropyl]-N-methyl-N-[2-(1-methylethyl)-5-thiazolylmethyl]urea] | 0.058 µM | 17.2 µM | 48%
CC(C)c1nc(COC(=O)N[C@H](C(=O)N[C@@H](Cc2ccccc2)[C@H](O)CN2CCN(Cc3ccc4c(c3)OCO4)C[C@H]2C(=O)NC(C)(C)C)C(C)C)cs1 [Example 1, 2-(1-Methylethyl)-4-thiazolylmethyl-[(1S)-1-[[[(1S,2R)-3-[(2S)-4-(1,3-benzodioxol-5-ylmethyl)-2-[[(1,1-dimethylethyl)amino]carbonyl]-1-piperazinyl]-2-hydroxy-1-(phenylmethyl)propyl]amino]carbonyl]-2-methylpropyl]carbamate] | 0.003 µM | 12.8 µM | 60%
5-Thiazolylmethyl-[(1S)-1-[[[(1S,2R)-3-[(2S)-2-[[(1,1-dimethylethyl)amino]carbonyl]-4-(phenylmethyl)-1-piperazinyl]-2-hydroxy-1-(phenylmethyl)propyl]amino]carbonyl]-2-methylpropyl]carbamate [Example 24] | 0.017 µM | 55.4 µM | 40%
CCc1nc(COC(=O)N[C@H](C(=O)N[C@@H](Cc2ccccc2)[C@H](O)CN2CCN(Cc3ccc(OC)c(OC)c3)C[C@H]2C(=O)NC(C)(C)C)C(C)C)cs1 [Example 18] | 0.019 µM | 44.6 µM | 82%
2-(1-Methylethyl)-4-thiazolylmethyl-[(1S)-1-[[[(1S,2R)-3-[(2S)-2-[[(1,1-dimethylethyl)amino]carbonyl]-4-(5-thienylmethyl)-1-piperazinyl]-2-hydroxy-1-(phenylmethyl)propyl]amino]carbonyl]-2-methylpropyl]carbamate [Example 4] | 0.012 µM | 69 µM | 67%
CC(C)c1nc(COC(=O)N[C@H](C(=O)N[C@@H](Cc2ccccc2)[C@H](O)CN2CCN(Cc3ccc4ccccc4n3)C[C@H]2C(=O)NC(C)(C)C)C(C)C)cs1 [Example 10, 2-(1-Methylethyl)-4-thiazolylmethyl-[(1S)-1-[[[(1S,2R)-3-[(2S)-2-[[(1,1-dimethylethyl)amino]carbonyl]-4-(2-quinolinylmethyl)-1-piperazinyl]-2-hydroxy-1-(phenylmethyl)propyl]amino]carbonyl]-2-methylpropyl]carbamate] | 0.014 µM | 18.2 µM | 70%
CC(C)c1nc(COC(=O)N[C@H](C(=O)N[C@@H](Cc2ccccc2)[C@H](O)CN2CCN(Cc3nc4ccccc4[nH]3)C[C@H]2C(=O)NC(C)(C)C)C(C)C)cs1 [Example 9] | 0.046 µM | 18.4 µM | 65%
CC(C)c1nc(COC(=O)N[C@H](C(=O)N[C@@H](Cc2ccccc2)[C@H](O)CN2CCN(Cc3ccc(O)cc3)C[C@H]2C(=O)NC(C)(C)C)C(C)C)cs1 [Example 8, 2-(1-Methylethyl)-4-thiazolylmethyl-[(1S)-1-[[[(1S,2R)-3-[(2S)-2-[[(1,1-dimethylethyl)amino]carbonyl]-4-[(4-hydroxyphenyl)methyl]-1-piperazinyl]-2-hydroxy-1-(phenylmethyl)propyl]amino]carbonyl]-2-methylpropyl]carbamate] | 0.047 µM | 18.9 µM | 54%
COc1ccc(CN2CCN(C[C@@H](O)[C@H](Cc3ccccc3)NC(=O)[C@@H](NC(=O)OCc3csc(C)n3)C(C)C)[C@H](C(=O)NC(C)(C)C)C2)cc1OC [Example 16, 2-Methyl-4-thiazolylmethyl-[(1S)-1-[[[(1S,2R)-3-[(2S)-4-[(3,4-dimethoxylphenyl)methyl]-2-[[(1,1-dimethylethyl)amino]carbonyl]-1-piperazinyl]-2-hydroxy-1-(phenylmethyl)propyl]amino]carbonyl]-2-methylpropyl]carbamate] | 0.01 µM | 61.7 µM | 49%
